According to the NIST ThermoML archive (doi:10.1016/j.fluid.2007.07.029):

Settings: Liquid, Transpiration method

CCCCCCC(=O)OCC(COC(=O)CCCCCC)(COC(=O)CCCCCC)COC(=O)CCCCCC [pentaerythritol tetraheptanoate]
Settings	vapor or sublimation pressure [kPa]
373.81 K	2.58e-07
393.48 K	2.61e-06
413.4 K	2.2e-05
433.36 K	0.000131

CCCCC(=O)OCC(COC(=O)CCCC)(COC(=O)CCCC)COC(=O)CCCC [pentaerythritol tetrapentanoate]
Settings	vapor or sublimation pressure [kPa]
334.02 K	2.55e-07
353.94 K	2.88e-06
373.62 K	2.61e-05
393.34 K	0.000166
413.08 K	0.000935

CCCCC(CC)C(=O)OCC(COC(=O)C(CC)CCCC)(COC(=O)C(CC)CCCC)COC(=O)C(CC)CCCC (stereo not given) [pentaerythritol tetra(2-ethylhexanoate)]
Settings	vapor or sublimation pressure [kPa]
353.96 K	1.27e-07
363.89 K	3.67e-07
373.81 K	1.07e-06
383.56 K	3.37e-06
393.56 K	8.94e-06
403.44 K	2.37e-05
413.44 K	5.82e-05
423.4 K	0.000133
433.18 K	0.000287
443.17 K	0.000644

CCCCCCCCC(=O)OCC(COC(=O)CCCCCCCC)(COC(=O)CCCCCCCC)COC(=O)CCCCCCCC [pentaerythritol tetranonanoate]
Settings	vapor or sublimation pressure [kPa]
394.55 K	5.57e-08
414.72 K	5.21e-07
435.03 K	3.98e-06
435.11 K	3.97e-06
455.36 K	2.82e-05
476.47 K	0.000174
